We go through nine compounds from PMC3998711 (Nature chemical biology, 2014).

Where two headings read alike, the source gives them in different places.

Assay [1] deals with MV4-11 AML cells. The assay is described as follows: MV4-11 proliferation assay. It counts as cell-based, human. Particulars: read-out: IC50, proliferation of MV4-11 AML cells.
The subject of assay [2] is c-Myc. In words: Western blot analysis of cellular c-Myc levels in MM.1S cells. The following applies: 6 h; for c-Myc levels (western blot): MM.1S cells, inhibitor 5 μM; for IC50: Homo sapiens, MM1.S, read-out: IC50 for c-Myc suppression. It counts as cell-based, human.
The test system of assay [3] is c-Myc. The assay is described as follows: Western blot of c-Myc levels in Molm14 cell lines. Particulars: FLT3 inhibitor-sensitive and -resistant lines, 6 h. Type of assay: cell-based, human. In general terms: Immunoblotting shows a protein as a band on a membrane.
Assay [4] deals with MM.1S multiple myeloma cells. In words: MM.1S proliferation assay. Type of assay: cell-based. Particulars: Homo sapiens, MM1.S, 72 h, read-out: IC50, MM.1S proliferation.
For assay [5], the system named is 12 primary human cell-based BioMAP systems. The assay is described as follows: BioMAP primary human cell disease model assay systems.
Assay [6] deals with BRD4(1) (Homo sapiens, UniProt O60885). In words: Isothermal titration calorimetry. It counts as binding. The following applies: ITC, 15 °C, 50 mM HEPES, 150 mM NaCl. A general note: ITC needs no label: the signal is the heat of the interaction.
Assay [7] concerns PLK family. In words: Kinome-wide profiling, PLK family.
For assay [8], the target named is first bromodomain of BRD4, BRD4(1) (Homo sapiens, UniProt O60885). The assay is described as follows: AlphaScreen assay. It counts as binding. Particulars: described in words. (In general: Bead proximity is the source of the signal in Alpha formats.)
For assay [9], the target named is RSK family kinase. In words: Kinome-wide profiling, RSK family. Particulars: read-out: Kds, RSK family; kinome-wide data.

As to `COc1cc2c(cc1-c1c(C)noc1C)ncc1[nH]c(=O)n([C@H](C)c3ccccn3)c12` [I-BET], the IC50 in assay [1] (72 h) was found to be 200 nM.

Consider `N#CC[C@H](C1CCCC1)n1cc(-c2ncnc3[nH]ccc23)cn1` [ruxolitinib], for which, in [1] (Homo sapiens, MV4-11, 72 h), the IC50 is around 10000 nM. Besides, in assay [2], the “c-Myc levels (western blot)” value was “did not affect c-Myc levels”.

As for `Cc1sc2c(c1C)C(c1ccc(Cl)cc1)=N[C@@H](CC(=O)OC(C)(C)C)c1nnc(C)n1-2` [JQ1], the IC50 in assay [1] (72 h) was found to be 28 nM. Moreover, the “c-Myc expression in Molm14 cell lines” value in assay [3] was “inhibits c-Myc expression with similar potencies”.

Consider `Cc1cnc(Nc2ccc(OCCN3CCCC3)cc2)nc1Nc1cccc(S(=O)(=O)NC(C)(C)C)c1` [TG-101348], for which the IC50 in assay [4] was 1000 to 3000 nM. Further, in [2], the IC50 lay in the range of 1000 to 3000 nM and the “c-Myc levels (western blot)” value is given as “strong c-Myc down regulation”. The “production of TNFα, MIG and IL-8” value in [5] was “inhibited”.

With `C[C@@H]1CCN(C(=O)CC#N)C[C@@H]1N(C)c1ncnc2[nH]ccc12` [tofacitinib], in assay [2], the “c-Myc levels (western blot)” value is recorded as “did not affect c-Myc levels”.

For `CC[C@@H]1C(=O)N(C)c2cnc(Nc3ccc(C(=O)NC4CCN(C)CC4)cc3OC)nc2N1C1CCCC1` [BI-2536], in assay [2], the IC50 is around 100 nM and the “c-Myc levels (western blot)” value is recorded as “strong c-Myc down regulation”.

As for `CN(c1ccccc1CNc1nc(Nc2ccc3c(c2)CC(=O)N3)ncc1C(F)(F)F)S(C)(=O)=O` [PF-431396], the Kd in assay [6] (error of the fit) turned out to be 445 ± 42 nM.

Take `C[C@@H](Oc1cc(-n2cnc3ccc(CN4CCN(C)CC4)cc32)sc1C(N)=O)c1ccccc1C(F)(F)F` [GSK-461364A]: the “c-Myc levels (western blot)” value in assay [2] is recorded as “did not affect c-Myc levels”.

`CC(C)CCN1c2nc(Nc3cc(F)c(O)c(F)c3)ncc2N(C)C(=O)C1C` (stereo not shown) [BI-D1870]: the “PLK family potencies lower than for BI-2536” value in assay [7] is on record as 10–100 fold. For the same compound, the Kd in assay [7] (read-out: Kds, PLK family, kinome-wide data) was around 10 nM; in assay [9], 10 to 100 nM; in assay [6], 3500 ± 170 nM. In addition, the “AlphaScreen dose response IC50” value in assay [8] was “nanomolar”.
